The source of these data is patent US11198713B2, “Agents modulating beta-catenin functions and methods thereof” (FOG PHARMACEUTICALS, INC., priority 2017, dated 2021).

SMILES strings stand for the structures. pEC50: −log10 of the molar value. Numbered stars: 1 amine (or outer) side, 2 acyl side, 3 side chain; on linkers, the order of the positions; unused ones are H or OH. Bridge positions count the residues as written; N and C are the ends. Square brackets hold non-standard residues; d marks the D form. Peptide text beside a SMILES is read from it. 3Aminoazetidine3carboxyl = O=C(C1(N[*:1])CN([*:3])C1)[*:2]; dαMeOrn(Me) = CN(CCC[C@@](C)(N[*:1])C(=O)[*:2])[*:3]; dαMeDap(Me) = CN(C[C@@](C)(N[*:1])C(=O)[*:2])[*:3]; αMeDab(Me) = CN(CC[C@](C)(N[*:1])C(=O)[*:2])[*:3]; X3 = O=C([C@@]1(N[*:1])CCN([*:3])C1)[*:2]; X1 = O=C([C@]1(N[*:1])CCN([*:3])C1)[*:2]; X2 = O=C(OCC=CCOC(=O)[*:2])[*:1]

The assay concerns the target T1, full-length beta-catenin (Axin site) (Homo sapiens, UniProt P35222).
T1 construct: 15 nM full-length beta-catenin, 20 nM FITC labeled peptide in buffer
T1 sequence (P35222 1-781): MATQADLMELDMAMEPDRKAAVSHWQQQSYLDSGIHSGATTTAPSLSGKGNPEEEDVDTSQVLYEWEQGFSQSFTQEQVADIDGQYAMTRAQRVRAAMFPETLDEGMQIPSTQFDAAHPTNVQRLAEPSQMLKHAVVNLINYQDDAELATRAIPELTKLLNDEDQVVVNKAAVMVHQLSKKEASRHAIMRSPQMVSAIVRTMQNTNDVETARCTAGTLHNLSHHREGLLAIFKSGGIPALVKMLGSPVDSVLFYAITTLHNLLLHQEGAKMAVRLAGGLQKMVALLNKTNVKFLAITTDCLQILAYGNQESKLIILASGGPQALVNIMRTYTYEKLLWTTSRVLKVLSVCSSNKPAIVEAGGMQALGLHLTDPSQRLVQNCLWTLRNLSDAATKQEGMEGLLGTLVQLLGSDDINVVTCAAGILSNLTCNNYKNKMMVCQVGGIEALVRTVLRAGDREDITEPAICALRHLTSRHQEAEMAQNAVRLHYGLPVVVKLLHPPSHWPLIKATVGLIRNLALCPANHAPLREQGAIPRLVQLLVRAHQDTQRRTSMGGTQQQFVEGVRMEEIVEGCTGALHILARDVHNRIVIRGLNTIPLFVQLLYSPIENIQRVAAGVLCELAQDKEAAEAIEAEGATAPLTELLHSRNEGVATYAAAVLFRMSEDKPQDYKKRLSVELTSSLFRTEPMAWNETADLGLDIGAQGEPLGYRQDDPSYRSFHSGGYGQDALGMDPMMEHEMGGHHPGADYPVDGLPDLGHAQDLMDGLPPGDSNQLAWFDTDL
Description: Competition fluorescence polarization assay (Axin site probe). Particulars: competition fluorescence polarization, Table 2; read-out: in vitro FP EC50. The format is binding. The gist of the method:
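Competition FP: 15 nM full-length β-catenin pre-incubated 5 min with 20 nM FITC-labelled stapled Axin-site peptide, then titrated peptide added (3-fold series from 5 μM) for 15 min in the dark. Buffer 50 mM Tris pH 8.0, 250 mM NaCl, 2% glycerol, 0.5 mM EDTA; duplicate reads.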
What is called pEC50 is −log10 of the EC50, conventionally taken in molar units. With `CC[C@H](C)[C@@H]1NC(=O)[C@H](Cc2c[nH]cn2)NC(=O)[C@H](C)NC(=O)[C@H](CC(=O)O)NC(=O)[C@H](CC(C)C)NC(=O)[C@H]([C@@H](C)CC)NC(=O)[C@](C)(NC(=O)[C@H](C)NC(C)=O)CN(C)C(=O)OCC=CCOC(=O)N(C)CC[C@@](C)(C(=O)N[C@@H](CCCNC(=N)N)C(=O)N[C@H](C(=O)N[C@@H](Cc2c[nH]c3ccccc23)C(N)=O)C(C)C)NC1=O` [FP0601c, Ac-A-ME-I-L-D-A-H-I-MF-R-V-W-NH2] (Ac-A[dαMeDap(Me)]ILDAHI[αMeDab(Me)]RVW-NH2; linker 2-9 via X2), the pEC50 is above 7.00.
`CC[C@H](C)[C@@H]1NC(=O)[C@H](Cc2c[nH]cn2)NC(=O)[C@H](C)NC(=O)[C@H](CC(=O)O)NC(=O)[C@H](CC(C)C)NC(=O)[C@H]([C@@H](C)CC)NC(=O)[C@](C)(NC(=O)[C@H](C)NC(C)=O)CN(C)C(=O)OCC=CCOC(=O)N2CC[C@@](C(=O)N[C@@H](CCCNC(=N)N)C(=O)N[C@H](C(=O)N[C@@H](Cc3c[nH]c4ccccc34)C(N)=O)C(C)C)(C2)NC1=O` [FP0604c, Ac-A-ME-I-L-D-A-H-I-MB-R-V-W-NH2] (Ac-A[dαMeDap(Me)]ILDAHI[X1]RVW-NH2; linker 2-9 via X2): the negative-log EC50 (pEC50) was above 7.00.
On to `CC[C@H](C)[C@@H]1NC(=O)[C@H](Cc2c[nH]cn2)NC(=O)[C@H](C)NC(=O)[C@H](CC(=O)O)NC(=O)[C@H](CC(C)C)NC(=O)[C@H]([C@@H](C)CC)NC(=O)[C@](C)(NC(=O)[C@H](C)NC(C)=O)CN(C)C(=O)OCC=CCOC(=O)N2CC[C@](C(=O)N[C@@H](CCCNC(=N)N)C(=O)N[C@H](C(=O)N[C@@H](Cc3c[nH]c4ccccc34)C(N)=O)C(C)C)(C2)NC1=O` [FP0605c, Ac-A-ME-I-L-D-A-H-I-MC-R-V-W-NH2] (Ac-A[dαMeDap(Me)]ILDAHI[X3]RVW-NH2; linker 2-9 via X2), for which the negative-log EC50 (pEC50) was above 7.00.
The result for `CC[C@H](C)[C@@H]1NC(=O)[C@H](Cc2c[nH]cn2)NC(=O)[C@H](C)NC(=O)[C@H](CC(=O)O)NC(=O)[C@H](CC(C)C)NC(=O)[C@H]([C@@H](C)CC)NC(=O)C2(NC(=O)[C@H](C)NC(C)=O)CN(C2)C(=O)OCC=CCOC(=O)N(C)CC[C@@](C)(C(=O)N[C@@H](CCCNC(=N)N)C(=O)N[C@H](C(=O)N[C@@H](Cc2c[nH]c3ccccc23)C(N)=O)C(C)C)NC1=O` [FP0611c, Ac-A-MA-I-L-D-A-H-I-MF-R-V-W-NH2] (Ac-A[3Aminoazetidine3carboxyl]ILDAHI[αMeDab(Me)]RVW-NH2; linker 2-9 via X2) reads above 7.00; that for `CC[C@H](C)[C@@H]1NC(=O)[C@H](Cc2c[nH]cn2)NC(=O)[C@H](C)NC(=O)[C@H](CC(=O)O)NC(=O)[C@H](CC(C)C)NC(=O)[C@H]([C@@H](C)CC)NC(=O)C2(NC(=O)[C@H](C)NC(C)=O)CN(C2)C(=O)OCC=CCOC(=O)N(C)CCC[C@](C)(C(=O)N[C@@H](CCCNC(=N)N)C(=O)N[C@H](C(=O)N[C@@H](Cc2c[nH]c3ccccc23)C(N)=O)C(C)C)NC1=O` [FP0625c, Ac-A-MA-I-L-D-A-H-I-MI-R-V-W-NH2] (Ac-A[3Aminoazetidine3carboxyl]ILDAHI[dαMeOrn(Me)]RVW-NH2; linker 2-9 via X2), 6.30 to 7.00; that for `CC[C@H](C)[C@@H]1NC(=O)[C@H](Cc2c[nH]cn2)NC(=O)[C@H](C)NC(=O)[C@H](CCS(C)(=O)=O)NC(=O)[C@H](CC(C)C)NC(=O)[C@H]([C@@H](C)CC)NC(=O)[C@](C)(NC(=O)[C@H](C)NC(C)=O)CCCCCCC=CCOC(=O)N2CC[C@@](C(=O)N[C@@H](CCCNC(=N)N)C(=O)N[C@H](C(=O)N[C@@H](Cc3c[nH]c4ccccc34)C(N)=O)C(C)C)(C2)NC1=O` [FP0629c, Ac-A-R8-I-L-M2O-A-H-I-MB-R-V-W-NH2], 5.30 to 6.30.
For the compound `CC[C@H](C)[C@@H]1NC(=O)[C@H](Cc2c[nH]cn2)NC(=O)[C@H](C)NC(=O)[C@H](CC(=O)O)NC(=O)[C@H](CC(C)C)NC(=O)[C@H]([C@@H](C)CC)NC(=O)[C@](C)(NC(=O)[C@H](C)NC(C)=O)CCCCCCC=CCOC(=O)N2CC[C@@](C(=O)N[C@@H](CCCNC(=N)N)C(=O)N[C@H](C(=O)N[C@H](Cc3c[nH]c4ccccc34)C(N)=O)C(C)C)(C2)NC1=O` [FP0630c, Ac-A-R8-I-L-D-A-H-I-MB-R-V-dW-NH2], the negative logarithm of the EC50 (pEC50) was 6.30 to 7.00.
For the compound `CC[C@H](C)[C@@H]1NC(=O)[C@H](Cc2c[nH]cn2)NC(=O)[C@H](C)NC(=O)[C@H](CC(=O)O)NC(=O)[C@H](CC(C)C)NC(=O)[C@H]([C@@H](C)CC)NC(=O)[C@](C)(NC(=O)[C@H](C)NC(C)=O)CCCCCCC=CCOC(=O)N2CC[C@@](C(=O)N[C@@H](CCCNC(=N)N)C(=O)N[C@H](C(=O)N[C@@](C)(Cc3c[nH]c4ccccc34)C(N)=O)C(C)C)(C2)NC1=O` [FP0631c, Ac-A-R8-I-L-D-A-H-I-MB-R-V-aMeW-NH2], the pEC50 was 5.30 to 6.30.
With `CC[C@H](C)[C@@H]1NC(=O)[C@H](Cc2c[nH]cn2)NC(=O)[C@H](C)NC(=O)[C@H](CC(=O)O)NC(=O)[C@H](CC(C)C)NC(=O)[C@H]([C@@H](C)CC)NC(=O)[C@](C)(NC(=O)[C@H](C)NC(C)=O)CCCCCCC=CCOC(=O)N2CC[C@@](C(=O)N[C@@H](CCCNC(=N)N)C(=O)N[C@@](C)(CC(C)C)C(=O)N[C@@H](Cc3c[nH]c4ccccc34)C(N)=O)(C2)NC1=O` [FP0633c, Ac-A-R8-I-L-D-A-H-I-MB-R-aMeL-W-NH2], the pEC50 is 5.30 to 6.30.
Regarding `CC[C@H](C)[C@@H]1NC(=O)[C@H](Cc2c[nH]cn2)NC(=O)[C@H](C)NC(=O)[C@H](CC(=O)O)NC(=O)[C@H](CC(C)C)NC(=O)[C@H]([C@@H](C)CC)NC(=O)[C@](C)(NC(=O)[C@H](C)NC(C)=O)CCCCCCC=CCOC(=O)N2CC[C@@](C(=O)N[C@@H](CCCCNC(=N)N)C(=O)N[C@H](C(=O)N[C@@H](Cc3c[nH]c4ccccc34)C(N)=O)C(C)C)(C2)NC1=O` [FP0634c, Ac-A-R8-I-L-D-A-H-I-MB-hArg-V-W-NH2], the pEC50 was above 7.00.
The result for `CC[C@H](C)[C@@H]1NC(=O)[C@H](Cc2c[nH]cn2)NC(=O)[C@H](C)NC(=O)[C@H](CC(=O)O)NC(=O)[C@H](CC(C)C)NC(=O)[C@H]([C@@H](C)CC)NC(=O)[C@](C)(NC(=O)[C@H](C)NC(C)=O)CCCCCCC=CCOC(=O)N2CC[C@@](C(=O)N[C@@H](CCCCN)C(=O)N[C@H](C(=O)N[C@@H](Cc3c[nH]c4ccccc34)C(N)=O)C(C)C)(C2)NC1=O` [FP0635c, Ac-A-R8-I-L-D-A-H-I-MB-K-V-W-NH2] reads 6.30 to 7.00.
On to `CC[C@H](C)[C@@H]1NC(=O)[C@H](Cc2c[nH]cn2)NC(=O)[C@H](C)NC(=O)[C@H](CC(=O)O)NC(=O)[C@H](CC(C)C)NC(=O)[C@H]([C@@H](C)CC)NC(=O)[C@](C)(NC(=O)[C@H](C)NC(C)=O)CCCCCCC=CCOC(=O)N2CC[C@@](C(=O)N[C@@H](CCCCNC)C(=O)N[C@H](C(=O)N[C@@H](Cc3c[nH]c4ccccc34)C(N)=O)C(C)C)(C2)NC1=O` [FP0636c, Ac-A-R8-I-L-D-A-H-I-MB-lmeK-V-W-NH2], for which the pEC50 is 6.30 to 7.00.
Regarding `CC[C@H](C)[C@@H]1NC(=O)[C@H](Cc2c[nH]cn2)NC(=O)[C@H](C)NC(=O)[C@H](CC(=O)O)NC(=O)[C@H](CC(C)C)NC(=O)[C@H]([C@@H](C)CC)NC(=O)[C@](C)(NC(=O)[C@H](C)NC(C)=O)CCCCCCC=CCOC(=O)N2CC[C@@](C(=O)N[C@@H](CCCNC(=N)N(C)C)C(=O)N[C@H](C(=O)N[C@@H](Cc3c[nH]c4ccccc34)C(N)=O)C(C)C)(C2)NC1=O` [FP0639c, Ac-A-R8-I-L-D-A-H-I-MB-ADMA-V-W-NH2], the pEC50 is above 7.00.
`CC[C@H](C)[C@@H]1NC(=O)[C@H](Cc2c[nH]cn2)NC(=O)[C@H](C)NC(=O)[C@H](CC(=O)O)NC(=O)[C@H](CC(C)C)NC(=O)[C@H]([C@@H](C)CC)NC(=O)[C@](C)(NC(=O)[C@H](C)NC(C)=O)CCCCCCC=CCOC(=O)N2CC[C@@](C(=O)N[C@@H](CCCNC(=NC)NC)C(=O)N[C@H](C(=O)N[C@@H](Cc3c[nH]c4ccccc34)C(N)=O)C(C)C)(C2)NC1=O` [FP0640c, Ac-A-R8-I-L-D-A-H-I-MB-SDMA-V-W-NH2]: the negative-log EC50 (pEC50) was above 7.00.
As for `CC[C@H](C)[C@@H]1NC(=O)[C@H](Cc2c[nH]cn2)NC(=O)[C@H](C)NC(=O)[C@H](CC(=O)O)NC(=O)[C@](C)(CC(C)C)NC(=O)[C@H]([C@@H](C)CC)NC(=O)[C@](C)(NC(=O)[C@H](C)NC(C)=O)CCCCCCC=CCOC(=O)N2CC[C@@](C(=O)N[C@@H](CCCNC(=N)N)C(=O)N[C@H](C(=O)N[C@@H](Cc3c[nH]c4ccccc34)C(N)=O)C(C)C)(C2)NC1=O` [FP0644c, Ac-A-R8-I-aMeL-D-A-H-I-MB-R-V-W-NH2], the figure is 6.30 to 7.00; as for `CC[C@H](C)[C@@H]1NC(=O)[C@H](Cc2c[nH]cn2)NC(=O)C(C)(C)NC(=O)[C@H](CC(=O)O)NC(=O)[C@H](CC(C)C)NC(=O)[C@H]([C@@H](C)CC)NC(=O)[C@](C)(NC(=O)[C@H](C)NC(C)=O)CCCCCCC=CCOC(=O)N2CC[C@@](C(=O)N[C@@H](CCCNC(=N)N)C(=O)N[C@H](C(=O)N[C@@H](Cc3c[nH]c4ccccc34)C(N)=O)C(C)C)(C2)NC1=O` [FP0645c, Ac-A-R8-I-L-D-Aib-H-I-MB-R-V-W-NH2], above 7.00.
